Laboratory results as given in article PMC10449633 (Nature Chemical Biology, 2023).
pIC50: −log10 of the molar value. Values joined by “and” are separate entries in the source; they are usually repeats but may differ in a detail not shown here. Equal values may be shown once. Read-outs that look alike come from different tables or passages of the source. Square brackets hold non-standard residues; d marks the D form. Peptide text beside a SMILES is read from it. NMeTrp(1-(4-Br-benzyl)) = CN[C@@H](Cc1cn(Cc2ccc(Br)cc2)c2ccccc12)C(=O)O; Butanoyl(2R-oxy,4-CN) = N#CCC[C@@H](O)C(=O)O; Abu(4,4,4-F3) = N[C@@H](CC(F)(F)F)C(=O)O; NMeL = CN[C@@H](CC(C)C)C(=O)O; NMeA = CN[C@@H](C)C(=O)O

Assays:
[1] = biological target: T1, Sec61 (Homo sapiens, UniProt P61619); experiment: signal peptide-GLuc (SP-GLuc) reporter panel, 89 constructs; type: cell-based; settings: read-out: IC50
T1 construct: endogenous in cells
Source text: The heat map depicts IC50 values calculated from each SP-GLuc dose–response curve. d, Arthritis was induced in BALB/c mice with antibodies specific for type II collagen (mAb) on day 0 and endotoxin on day 3. On day 4, when the disease was present in all animals, mice were randomized and treated for 2 weeks with thrice weekly (QODx3) or weekly (QW) intravenous administration of vehicle or KZR-8445 or intraperitoneal administration of dexamethasone. Clinical scores (0–4 per paw; n = 10 per group) and body weights were followed until day 14. Data are presented as mean values ± s.d. mAb, monoclonal antibody. Source data
To investigate the effects of KZR-8445 on secretory and membrane protein biogenesis and to establish Sec61α as the relevant target, we quantified the secretion of a doxycycline-inducible Gaussia luciferase (GLuc) reporter fused to the C-terminus of two full-length pro-inflammatory cytokines, interleukin-2 (IL-2) (which contains a cleavable signal peptide) and tumor necrosis factor-alpha (TNFα) (which contains an N-terminal transmembrane anchor). […] KZR-8445 is structurally related to CT8, which discriminates among Sec61 clients based largely on their N-terminal signal peptide. […] We also directly compared KZR-8445 to mycolactone A/B, a structurally distinct and relatively client-nonselective Sec61 inhibitor[8],[25], for their ability to discriminate between vascular cell adhesion molecule (VCAM) and preprolactin (pPL) signal peptides.
Target sequence in this assay (P61619 whole entry): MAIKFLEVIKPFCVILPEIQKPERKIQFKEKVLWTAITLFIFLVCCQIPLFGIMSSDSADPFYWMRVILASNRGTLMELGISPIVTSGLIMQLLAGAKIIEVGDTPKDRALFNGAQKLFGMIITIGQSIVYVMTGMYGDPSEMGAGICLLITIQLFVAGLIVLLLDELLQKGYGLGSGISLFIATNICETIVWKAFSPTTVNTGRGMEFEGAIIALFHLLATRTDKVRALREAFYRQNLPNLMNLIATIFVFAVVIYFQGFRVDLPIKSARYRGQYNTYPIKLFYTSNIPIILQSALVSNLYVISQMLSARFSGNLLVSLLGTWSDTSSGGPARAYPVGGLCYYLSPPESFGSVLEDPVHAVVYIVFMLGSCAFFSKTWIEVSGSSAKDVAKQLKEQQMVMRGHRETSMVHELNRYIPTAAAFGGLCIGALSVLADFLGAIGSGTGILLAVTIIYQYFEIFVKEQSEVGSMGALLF
Target sequence in this assay (P60059 whole entry, further chain): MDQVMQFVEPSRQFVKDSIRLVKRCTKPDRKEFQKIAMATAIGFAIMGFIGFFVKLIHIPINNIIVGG
Target sequence in this assay (P60468 whole entry, further chain): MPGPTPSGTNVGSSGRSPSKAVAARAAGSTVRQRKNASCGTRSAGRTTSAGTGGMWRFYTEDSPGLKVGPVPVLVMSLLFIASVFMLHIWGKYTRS

[2] = biological target: T1, Sec61; experiment: cell-based
Target sequence in this assay (P60059 whole entry): as the sequence (P60059 whole entry, further chain) above
Target sequence in this assay (P61619 whole entry): as the sequence (P61619 whole entry) above
Target sequence in this assay (P60468 whole entry, further chain): as the sequence (P60468 whole entry, further chain) above

## CC(C)C[C@@H]1NC(=O)[C@H](Cc2cn(Cc3ccc(Br)cc3)c3ccccc23)N(C)C(=O)[C@H](CC(F)(F)F)NC(=O)[C@H](CC(C)C)N(C)C(=O)[C@H](CC(F)(F)F)NC(=O)[C@@H](CCC#N)OC(=O)[C@H](C)N(C)C1=O [KZR-0508445] (cyclo(L[NMeA][Butanoyl(2R-oxy,4-CN)][Abu(4,4,4-F3)][NMeL][Abu(4,4,4-F3)][NMeTrp(1-(4-Br-benzyl))]))
[1]; ADPGK signal peptide-GLuc reporter
  pIC50: 6.27
[1]; ANGPTL3 signal peptide-GLuc reporter
  pIC50: 7.31
[1]; APOC1 signal peptide-GLuc reporter
  pIC50: 6.87
[1]; APP signal peptide-GLuc reporter
  pIC50: 6.35
[1]; AXL signal peptide-GLuc reporter
  pIC50: 7.86
[1]; BCAN signal peptide-GLuc reporter
  pIC50: 6.85
[1]; C1S signal peptide-GLuc reporter
  pIC50: 6.42
[1]; CALCA signal peptide-GLuc reporter
  pIC50: 6.14
[1]; CALCB signal peptide-GLuc reporter
  pIC50: 6.01
[1]; CD40 signal peptide-GLuc reporter
  pIC50: 4.95
[1]; CD47 signal peptide-GLuc reporter
  pIC50: 6.43
[1]; CD96 signal peptide-GLuc reporter
  pIC50: 7.53
[1]; CD274 signal peptide-GLuc reporter
  pIC50: 7.03
[1]; CDH1 signal peptide-GLuc reporter
  pIC50: 6.09
[1]; CDH2 signal peptide-GLuc reporter
  pIC50: 7.81
[1]; CDH5 signal peptide-GLuc reporter
  pIC50: 7.12
[1]; CNPY2 signal peptide-GLuc reporter
  pIC50: 6.40
[1]; CPD signal peptide-GLuc reporter
  pIC50: 6.16
[1]; CR1L signal peptide-GLuc reporter
  pIC50: 7.21
[1]; CSF2RB signal peptide-GLuc reporter
  pIC50: 6.19
[1]; CTLA4 signal peptide-GLuc reporter
  pIC50: 6.46
[1]; DDRGK1 signal peptide-GLuc reporter
  pIC50: 5.73
[1]; DMKN signal peptide-GLuc reporter
  pIC50: 5.58
[1]; DNAJB11 signal peptide-GLuc reporter
  pIC50: 5.36
[1]; ERBB2 signal peptide-GLuc reporter
  pIC50: 6.27
[1]; F3 signal peptide-GLuc reporter
  pIC50: 6.79
[1]; FGF23 signal peptide-GLuc reporter
  pIC50: 7.55
[1]; FLT3 signal peptide-GLuc reporter
  pIC50: 6.44
[1]; FNDC10 signal peptide-GLuc reporter
  pIC50: 6.14
[1]; FURIN signal peptide-GLuc reporter
  pIC50: 5.32
[1]; GAS6 signal peptide-GLuc reporter
  pIC50: 6.93
[1]; HJV signal peptide-GLuc reporter
  pIC50: 6.37
[1]; HLA-G signal peptide-GLuc reporter
  pIC50: 7.41
[1]; HSPA13 signal peptide-GLuc reporter
  pIC50: 5.96
[1]; IGF1R signal peptide-GLuc reporter
  pIC50: 6.09
[1]; IL1RAP signal peptide-GLuc reporter
  pIC50: 6.99
[1]; IL4R signal peptide-GLuc reporter
  pIC50: 7.49
[1]; IL4 signal peptide-GLuc reporter
  pIC50: 6.44
[1]; IL5RA signal peptide-GLuc reporter
  pIC50: 5.88
[1]; IL5 signal peptide-GLuc reporter
  pIC50: 5.89
[1]; IL6R signal peptide-GLuc reporter
  pIC50: 7.03
[1]; IL6ST signal peptide-GLuc reporter
  pIC50: 7.25
[1]; IL6 signal peptide-GLuc reporter
  pIC50: 6.81
[1]; IL7 signal peptide-GLuc reporter
  pIC50: 8.28
[1]; IL10 signal peptide-GLuc reporter
  pIC50: 6.36
[1]; IL11 signal peptide-GLuc reporter
  pIC50: 6.74
[1]; IL12B signal peptide-GLuc reporter
  pIC50: 6.96
[1]; IL12RB1 signal peptide-GLuc reporter
  pIC50: 7.19
[1]; IL13 signal peptide-GLuc reporter
  pIC50: 7.23
[1]; IL15RA signal peptide-GLuc reporter
  pIC50: 6.53
[1]; IL15 signal peptide-GLuc reporter
  pIC50: 6.94
[1]; IL17A signal peptide-GLuc reporter
  pIC50: 6.50
[1]; IL17F signal peptide-GLuc reporter
  pIC50: 6.64
[1]; IL17RA signal peptide-GLuc reporter
  pIC50: 6.39
[1]; IL23A signal peptide-GLuc reporter
  pIC50: 6.37
[1]; IL23R signal peptide-GLuc reporter
  pIC50: 6.44
[1]; ITGA3 signal peptide-GLuc reporter
  pIC50: 4.74
[1]; ITGB3 signal peptide-GLuc reporter
  pIC50: 6.97
[1]; ITGB5 signal peptide-GLuc reporter
  pIC50: 7.05
[1]; ITGB7 signal peptide-GLuc reporter
  pIC50: 6.64
[1]; JTB signal peptide-GLuc reporter
  pIC50: 7.59
[1]; KRTDAP signal peptide-GLuc reporter
  pIC50: 6.24
[1]; LCN6 signal peptide-GLuc reporter
  pIC50: 7.00
[1]; LDLR signal peptide-GLuc reporter
  pIC50: 6.10
[1]; LILRB2 signal peptide-GLuc reporter
  pIC50: 5.76
[1]; LRP8 signal peptide-GLuc reporter
  pIC50: 6.17
[1]; MASP2 signal peptide-GLuc reporter
  pIC50: 6.90
[1]; METTL7A signal peptide-GLuc reporter
  pIC50: 5.16
[1]; NGF signal peptide-GLuc reporter
  pIC50: 6.46
[1]; P3H1 signal peptide-GLuc reporter
  pIC50: 7.14
[1]; PCDHA4 signal peptide-GLuc reporter
  pIC50: 6.31
[1]; PCSK9 signal peptide-GLuc reporter
  pIC50: 5.89
[1]; PDCD1 signal peptide-GLuc reporter
  pIC50: 7.43
[1]; PRKCSH signal peptide-GLuc reporter
  pIC50: 6.73
[1]; PSG8 signal peptide-GLuc reporter
  pIC50: 6.53
[1]; SIRPA signal peptide-GLuc reporter
  pIC50: 5.69
[1]; SSR2 signal peptide-GLuc reporter
  pIC50: 6.86
[1]; STAB1 signal peptide-GLuc reporter
  pIC50: 6.17
[1]; SUCO signal peptide-GLuc reporter
  pIC50: 5.84
[1]; TGFB1 signal peptide-GLuc reporter
  pIC50: 5.66
[1]; TGFB2 signal peptide-GLuc reporter
  pIC50: 6.73
[1]; TGFBR1 signal peptide-GLuc reporter
  pIC50: 6.87
[1]; TIGIT signal peptide-GLuc reporter
  pIC50: 6.23
[1]; TMED10 signal peptide-GLuc reporter
  pIC50: 6.34
[1]; UCN signal peptide-GLuc reporter
  pIC50: 5.23
[2]; HER3, Concentration 0.32
  GLuc reporter raw signal (replicates): 2935000 and 2941500 and 3013900
[2]; HER3, Concentration 8
  GLuc reporter raw signal (replicates): 2659500 and 2842600
[2]; HER3, Concentration 40
  GLuc reporter raw signal (replicates): 1960600 and 2026300 and 1990500
[2]; HER3, Concentration 200
  GLuc reporter raw signal (replicates): 739710 and 740510 and 713180
[2]; HER3, Concentration 1000
  GLuc reporter raw signal (replicates): 117630 and 116630 and 119290
[2]; HER3, Concentration 5000
  GLuc reporter raw signal (replicates): 40623 and 42704 and 41387
[2]; HER3, Concentration 25000
  GLuc reporter raw signal (replicates): 40492 and 42302 and 41156
[2]; IL2, Concentration 0.32
  GLuc reporter raw signal (replicates): 2694100 and 2451600 and 2682900
[2]; IL2, Concentration 8
  GLuc reporter raw signal (replicates): 2155800 and 2012200 and 2217000
[2]; IL2, Concentration 40
  GLuc reporter raw signal (replicates): 1384000 and 1357800 and 1362400
[2]; IL2, Concentration 200
  GLuc reporter raw signal (replicates): 418080 and 431560 and 427460
[2]; IL2, Concentration 1000
  GLuc reporter raw signal (replicates): 69620 and 75099 and 80209
[2]; IL2, Concentration 5000
  GLuc reporter raw signal (replicates): 24453 and 26590 and 27282
[2]; IL2, Concentration 25000
  GLuc reporter raw signal (replicates): 27001 and 26299 and 26941
[2]; PD1, Concentration 0.32
  GLuc reporter raw signal (replicates): 1085300 and 1145000 and 1139600
[2]; PD1, Concentration 8
  GLuc reporter raw signal (replicates): 871620 and 904180 and 884200
[2]; PD1, Concentration 40
  GLuc reporter raw signal (replicates): 505580 and 506170 and 515230
[2]; PD1, Concentration 200
  GLuc reporter raw signal (replicates): 149930 and 159870 and 181940
[2]; PD1, Concentration 1000
  GLuc reporter raw signal (replicates): 25647 and 33346 and 33065
[2]; PD1, Concentration 5000
  GLuc reporter raw signal (replicates): 10483 and 12045 and 12165
[2]; PD1, Concentration 25000
  GLuc reporter raw signal (replicates): 10613 and 11144 and 10202
[2]; Prolactin, Concentration 0.32
  GLuc reporter raw signal (replicates): 9123600 and 9441100 and 9520300
[2]; Prolactin, Concentration 40
  GLuc reporter raw signal (replicates): 8673700 and 8850000 and 8412700
[2]; Prolactin, Concentration 200
  GLuc reporter raw signal (replicates): 7415400 and 7981400 and 8354800
[2]; Prolactin, Concentration 1000
  GLuc reporter raw signal (replicates): 4269000 and 4043400 and 4397300
[2]; Prolactin, Concentration 5000
  GLuc reporter raw signal (replicates): 1501600 and 1605300 and 3990200
[2]; Prolactin, Concentration 25000
  GLuc reporter raw signal (replicates): 1205700 and 1279300 and 1375600
[2]; TNFa, Concentration 0.32
  GLuc reporter raw signal (replicates): 190530 and 188640 and 185180
[2]; TNFa, Concentration 8
  GLuc reporter raw signal (replicates): 168690 and 159800
[2]; TNFa, Concentration 40
  GLuc reporter raw signal (replicates): 128960 and 129480 and 142690
[2]; TNFa, Concentration 200
  GLuc reporter raw signal (replicates): 58379 and 60837 and 65010
[2]; TNFa, Concentration 1000
  GLuc reporter raw signal (replicates): 21193 and 19058 and 21945
[2]; TNFa, Concentration 5000
  GLuc reporter raw signal (replicates): 10351 and 10241 and 10171
[2]; TNFa, Concentration 25000
  GLuc reporter raw signal (replicates): 9540 and 9711 and 9400
